Columns and labels:
TNFα = test: cells; assay type: cell-based, human; details: Homo sapiens, Monocyte, LPS-stimulated human monocytes, TNFα by TR-FRET; read-out: EC50 TNF
IRAK4 enzyme = IRAK4 enzyme (Homo sapiens (Human), UniProt Q9NWZ3); test: biochemical; assay type: biochemical; details: IRAK4 enzyme, TR-FRET, 500 μM ATP
IRAK4 enzyme, sequence (Q9NWZ3 whole entry): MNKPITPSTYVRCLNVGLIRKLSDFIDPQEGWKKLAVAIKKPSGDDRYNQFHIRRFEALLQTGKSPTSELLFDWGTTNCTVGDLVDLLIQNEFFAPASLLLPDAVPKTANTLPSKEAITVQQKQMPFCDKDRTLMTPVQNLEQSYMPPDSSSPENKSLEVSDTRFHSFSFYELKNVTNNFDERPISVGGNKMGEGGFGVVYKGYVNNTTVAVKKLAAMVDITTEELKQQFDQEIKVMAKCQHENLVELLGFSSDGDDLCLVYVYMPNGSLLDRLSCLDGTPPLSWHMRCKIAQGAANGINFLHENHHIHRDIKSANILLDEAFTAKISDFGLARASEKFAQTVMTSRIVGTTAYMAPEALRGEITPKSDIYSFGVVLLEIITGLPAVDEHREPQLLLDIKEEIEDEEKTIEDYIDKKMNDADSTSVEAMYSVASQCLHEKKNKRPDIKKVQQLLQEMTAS

SMILES	EC50 (TNFα)	IC50 (IRAK4 enzyme)
CC(C)(O)[C@H](F)CNC(=O)c1cnc(-c2ccc3cc(C#N)cnn23)cc1N[C@H]1CC[C@H](N2CCOCC2)CC1 [Example 822, 6-(3-cyanopyrrolo[1,2-b]pyridazin-7-yl)-N-((R)-2-fluoro-3-hydroxy-3-methylbutyl)-4-(((1r,4R)-4-morpholinocyclohexyl)amino)nicotinamide]	73 nM	1 nM
COCC(=O)NC[C@H]1C[C@H](Nc2cc(-c3ccc4cc(C#N)cnn34)ncc2C(=O)NC[C@@H](F)C(C)(C)O)C1 [Example 823, 6-(3-cyanopyrrolo[1,2-b]pyridazin-7-yl)-N-((R)-2-fluoro-3-hydroxy-3-methylbutyl)-4-(((1r,3R)-3-((2-methoxyacetamido)methyl)cyclobutyl)amino)nicotinamide]	47 nM	< 1 nM
CC(C)(C)C(=O)NC[C@H]1C[C@H](Nc2cc(-c3ccc4cc(C#N)cnn34)ncc2C(=O)NC[C@@H](F)C(C)(C)O)C1 [Example 824, 6-(3-cyanopyrrolo[1,2-b]pyridazin-7-yl)-N-((R)-2-fluoro-3-hydroxy-3-methylbutyl)-4-(((1r,3R)-3-(pivalamidomethyl)cyclo-butyl)amino)nicotinamide]	39 nM	< 1 nM
CCCC(=O)NC[C@H]1C[C@H](Nc2cc(-c3ccc4cc(C#N)cnn34)ncc2C(=O)NC[C@@H](F)C(C)(C)O)C1 [Example 825, 4-(((1r,3R)-3-(butyramidomethyl)cyclo-butyl)amino)-6-(3-cyano-pyrrolo[1,2-b]pyridazin-7-yl)-N-((R)-2-fluoro-3-hydroxy-3-methylbutyl) nicotinamide]	48 nM	< 1 nM
CC(C)CC(=O)NC[C@H]1C[C@H](Nc2cc(-c3ccc4cc(C#N)cnn34)ncc2C(=O)NC[C@@H](F)C(C)(C)O)C1 [Example 826, 6-(3-cyanopyrrolo[1,2-b]pyridazin-7-yl)-N-((R)-2-fluoro-3-hydroxy-3-methylbutyl)-4-(((1r,3R)-3-((3-methylbutanamido)methyl)cyclobutyl)amino)nicotinamide]	32 nM	< 1 nM
CC1(C(=O)NC[C@H]2C[C@H](Nc3cc(-c4ccc5cc(C#N)cnn45)ncc3C(=O)NC[C@@H](F)C(C)(C)O)C2)CC1 [Example 827, 6-(3-cyanopyrrolo[1,2-b]pyridazin-7-yl)-N-((R)-2-fluoro-3-hydroxy-3-methylbutyl)-4-(((1r,3R)-3-((1-methylcyclopropane-1-carboxamido)methyl)cyclo-butyl)amino)nicotinamide]	15 nM	< 1 nM
CC(C)(O)[C@H](F)CNC(=O)c1cnc(-c2ccc3cc(C#N)cnn23)cc1N[C@H]1C[C@H](CNC(=O)C2(F)CC2)C1 [Example 828, 6-(3-cyanopyrrolo[1,2-b]pyridazin-7-yl)-N-((R)-2-fluoro-3-hydroxy-3-methylbutyl)-4-(((1r,3R)-3-((1-fluorocyclopropane-1-carboxamido)methyl)cyclobutyl)amino) nicotinamide]	12 nM	< 1 nM
CC(C)(O)[C@H](F)CNC(=O)c1cnc(-c2ccc3cc(C#N)cnn23)cc1N[C@H]1C[C@H](CNC(=O)C2(C(F)(F)F)CC2)C1 [Example 829, 6-(3-cyanopyrrolo[1,2-b]pyridazin-7-yl)-N-((R)-2-fluoro-3-hydroxy-3-methylbutyl)-4-(((1r,3R)-3-((1-(trifluoromethyl)cyclopropane-1-carboxamido)methyl)cyclobutyl)amino) nicotinamide]	23 nM	< 1 nM
COC(=O)NC[C@H]1C[C@H](Nc2cc(-c3ccc4cc(C#N)cnn34)ncc2C(=O)NC2CCC(NC(=O)C3CC3)CC2)C1 (stereo partly drawn) [Example 830, methyl (((1R,3r)-3-((2-(3-cyanopyrrolo[1,2-b]pyridazin-7-yl)-5-(((1r,4R)-4-(cyclopropanecarboxamido)cyclohexyl)carbamoyl)pyridin-4-yl)amino)cyclobutyl)methyl)carbamate]	23 nM	< 1 nM
CC(C)(O)[C@H](F)CNC(=O)c1cnc(-c2ccc3cc(C#N)cnn23)cc1N[C@H]1C[C@H](CNS(C)(=O)=O)C1 [Example 831, 6-(3-cyanopyrrolo[1,2-b]pyridazin-7-yl)-N-((R)-2-fluoro-3-hydroxy-3-methylbutyl)-4-(((1r,3R)-3-(methylsulfonamido-methyl)cyclobutyl)amino)nicotinamide]	49 nM	< 1 nM
CC(C)(O)[C@H](F)CNC(=O)c1cnc(-c2ccc3cc(C#N)cnn23)cc1NC1CCC2(CCC(=O)N2)CC1 (stereo partly drawn) [Example 832, 6-(3-cyanopyrrolo[1,2-b]pyridazin-7-yl)-N-((R)-2-fluoro-3-hydroxy-3-methylbutyl)-4-(((5R,8r)-2-oxo-1-azaspiro[4.5]decan-8-yl)amino) nicotinamide]	132 nM	1 nM
CC(C)(O)[C@H](F)CNC(=O)c1cnc(-c2ccc3cc(C#N)cnn23)cc1NC12CC(CNC(=O)C3CC3(F)F)(C1)C2 (stereo partly drawn) [Example 833, 6-(3-cyanopyrrolo[1,2-b]pyridazin-7-yl)-4-((3-(((R)-2,2-difluorocyclo-propane-1-carboxamido)methyl)bicyclo[1.1.1]pentan-1-yl)amino)-N-((R)-2-fluoro-3-hydroxy-3-methylbutyl)nicotinamide]	192 nM	1 nM
COC(=O)NCc1ccc(Nc2cc(-c3ccc4cc(C#N)cnn34)ncc2C(=O)NC[C@@H](F)C(C)(C)O)cc1F [Example 834, (R)-methyl (4-((2-(3-cyano-pyrrolo[1,2-b]pyridazin-7-yl)-5-((2-fluoro-3-hydroxy-3-methylbutyl)carbamoyl)pyridin-4-yl)amino)-2-fluorobenzyl)carbamate]	23 nM	< 1 nM
CCOc1cncc(Nc2cc(-c3ccc4cc(C#N)cnn34)ncc2C(=O)NC[C@@H](F)C(C)(C)O)c1 [Example 835, (R)-6-(3-cyanopyrrolo[1,2-b]pyridazin-7-yl)-4-((5-ethoxypyridin-3-yl)amino)-N-(2-fluoro-3-hydroxy-3-methylbutyl)nicotinamide]	8 nM	< 1 nM
CCOc1cccc(Nc2cc(-c3ccc4cc(C#N)cnn34)ncc2C(=O)NC[C@@H](F)C(C)(C)O)c1 [Example 836, (R)-6-(3-cyanopyrrolo[1,2-b]pyridazin-7-yl)-4-((3-ethoxyphenyl)amino)-N-(2-fluoro-3-hydroxy-3-methylbutyl)nicotinamide]	43 nM	2 nM
CC(C)Oc1cccc(Nc2cc(-c3ccc4cc(C#N)cnn34)ncc2C(=O)NC[C@@H](F)C(C)(C)O)c1 [Example 837, (R)-6-(3-cyanopyrrolo[1,2-b]pyridazin-7-yl)-N-(2-fluoro-3-hydroxy-3-methylbutyl)-4-((3-isopropoxyphenyl)amino)nicotinamide]	117 nM	3 nM
CC(C)Cc1cccc(Nc2cc(-c3ccc4cc(C#N)cnn34)ncc2C(=O)NC[C@@H](F)C(C)(C)O)c1 [Example 838, (R)-6-(3-cyanopyrrolo[1,2-b]pyridazin-7-yl)-N-(2-fluoro-3-hydroxy-3-methylbutyl)-4-((3-isobutylphenyl)amino) nicotinamide]	> 10000 nM	57 nM
CCC(=O)c1cccc(Nc2cc(-c3ccc4cc(C#N)cnn34)ncc2C(=O)NC[C@@H](F)C(C)(C)O)c1 [Example 839, (R)-6-(3-cyanopyrrolo[1,2-b]pyridazin-7-yl)-N-(2-fluoro-3-hydroxy-3-methylbutyl)-4-((3-propionylphenyl)amino) nicotinamide]	307 nM	1 nM
COc1cnc(Nc2cc(-c3ccc4cc(C#N)cnn34)ncc2C(=O)NC[C@@H](F)C(C)(C)O)cn1 [Example 840, (R)-6-(3-cyanopyrrolo[1,2-b]pyridazin-7-yl)-N-(2-fluoro-3-hydroxy-3-methylbutyl)-4-((5-methoxypyrazin-2-yl)amino)nicotinamide]	17 nM	< 1 nM
CCOc1cnc(Nc2cc(-c3ccc4cc(C#N)cnn34)ncc2C(=O)NC[C@@H](F)C(C)(C)O)cn1 [Example 841, (R)-6-(3-cyanopyrrolo[1,2-b]pyridazin-7-yl)-4-((5-ethoxypyrazin-2-yl)amino)-N-(2-fluoro-3-hydroxy-3-methylbutyl)nicotinamide]	29 nM	< 1 nM
COc1cncc(Nc2cc(-c3ccc4cc(C#N)cnn34)ncc2C(=O)NC[C@@H](F)C(C)(C)O)n1 [Example 842, (R)-6-(3-cyanopyrrolo[1,2-b]pyridazin-7-yl)-N-(2-fluoro-3-hydroxy-3-methylbutyl)-4-((6-methoxypyrazin-2-yl)amino)nicotinamide]	42 nM	< 1 nM
CCCc1nccc(Nc2cc(-c3ccc4cc(C#N)cnn34)ncc2C(=O)NC[C@@H](F)C(C)(C)O)n1 [Example 843, (R)-6-(3-cyanopyrrolo[1,2-b]pyridazin-7-yl)-N-(2-fluoro-3-hydroxy-3-methylbutyl)-4-((2-propyl-pyrimidin-4-yl)amino)nicotinamide]	137 nM	1 nM
COc1nccc(Nc2cc(-c3ccc4cc(C#N)cnn34)ncc2C(=O)NC[C@@H](F)C(C)(C)O)n1 [Example 844, (R)-6-(3-cyanopyrrolo[1,2-b]pyridazin-7-yl)-N-(2-fluoro-3-hydroxy-3-methylbutyl)-4-((2-methoxypyrimidin-4-yl)amino)nicotinamide]	70 nM	1 nM
CCOc1cncc(Nc2cc(-c3ccc4cc(C#N)cnn34)ncc2C(=O)NC[C@@H](F)C(C)(C)O)n1 [Example 845, (R)-6-(3-cyanopyrrolo[1,2-b]pyridazin-7-yl)-4-((6-ethoxypyrazin-2-yl)amino)-N-(2-fluoro-3-hydroxy-3-methylbutyl)nicotinamide]	> 10000 nM	< 1 nM
COc1cc(Nc2cc(-c3ccc4cc(C#N)cnn34)ncc2C(=O)NC[C@@H](F)C(C)(C)O)ncn1 [Example 846, (R)-6-(3-cyanopyrrolo[1,2-b]pyridazin-7-yl)-N-(2-fluoro-3-hydroxy-3-methylbutyl)-4-((6-methoxy-pyrimidin-4-yl)amino) nicotinamide]	97 nM	2 nM

Reference: patent publication US10336762B2 (priority 2017, dated 2019)
